Here are results for 23 compounds from patent US8183234B2, “Tricyclic guanidine derivatives as sodium-proton exchange inhibitors” (Piramal Life Sciences Limited, priority 2004, dated 2012).

SMILES strings stand for the structures. Where a name gives a salt, the structure may show the parent alone.

For the compound `Cc1cc(C(=O)N=C(N)N)cc2c1Oc1c(Cl)cc(N)cc1CS2(=O)=O` (as salt: sulfonic acid salt) [Example 35, N-(2-Amino-4-chloro-6-methyl-10,10-dioxo-10,11-dihydro-5-oxa-10lambda*6*-thia-dibenzo[a,d]cycloheptene-8-carbonyl)-guanidine, methane sulfonic acid salt], the melting point fell in the range of 190 to 192 °C.

For the compound `CS(=O)(=O)O.CS(=O)(=O)O.CS(=O)(=O)O.Cc1cc(C(=O)NC(=N)N)cc2c1Oc1c(Cl)cc(N3CCNCC3)cc1CS2(=O)=O` [Example 104, N-(4-Chloro-6-methyl-10,10-dioxo-2-piperazin-1-yl-10,11-dihydro-5-oxa-10lambda*6*-thia-dibenzo[a,d]cycloheptene-8-carbonyl)-guanidine trimesylate], the melting point was 203 to 205 °C. Take `CS(=O)(=O)O.CS(=O)(=O)O.CS(=O)(=O)O.Cc1cc(C(=O)NC(=N)N)cc2c1Oc1c(Cl)cc(N3CCN(CCN(C)C)CC3)cc1CS2(=O)=O` [Example 119, N-{4-Chloro-2-[4-(2-dimethylamino-ethyl)-piperazin-1-yl]-6-methyl-10,10-dioxo-10,11-dihydro-5-oxa-10lambda*6*-thia-dibenzo[a,d]cycloheptene-8-carbonyl}-guanidine trimesylate]: the melting point is 243 to 245 °C.

`CCN(CCN(CC)c1cc(Cl)c2c(c1)CS(=O)(=O)c1cc(C(=O)NC(=N)N)cc(C)c1O2)Cc1cccs1.CS(=O)(=O)O.CS(=O)(=O)O` [Example 87, N-(4-Chloro-2-{ethyl-[2-(ethyl-thiophen-2-ylmethyl-amino)-ethyl]-amino}-6-methyl-10,10-dioxo-10,11-dihydro-5-oxa-10lambda*6*-thia-dibenzo[a,d]cycloheptene-8-carbonyl)-guanidine dimesylate] yielded a melting point of 156 to 158 °C.

As for `Cc1cc(C(=O)N=C(N)N)cc2c1Oc1c(Cl)cc(CN)cc1CS2(=O)=O` (as salt: mesylate) [Example 198, N-(2-Aminomethyl-4-chloro-6-methyl-10,10-dioxo-10,11-dihydro-5-oxa-10lambda*6*-thia-dibenzo[a.d]cycloheptene-8-carbonyl)-guanidine trimesylate], the melting point lay in the range of 242 to 244 °C.

`CC(=O)N(CCN(C)C)c1cc(Cl)c2c(c1)CS(=O)(=O)c1cc(C(=O)NC(=N)N)cc(C)c1O2.CS(=O)(=O)O.CS(=O)(=O)O.CS(=O)(=O)O` [Example 100, N-(4-Chloro-8-guanidinocarbonyl-6-methyl-10,10-dioxo-10,11-dihydro-5-oxa-10lambda*6*-thia-dibenzo[a,d]cyclohepten-2-yl)-N-(2-dimethylamino-ethyl)-acetamide trimesylate] gave a melting point of 128 to 130 °C. The compound `CS(=O)(=O)O.CS(=O)(=O)O.Cc1cc(C(=O)NC(=N)N)cc2c1Oc1c(Cl)cc(N3CCN(CCO)CC3)cc1CS2(=O)=O` [Example 197, N-{4-Chloro-2-[4-(2-hydroxy-ethyl)-piperazin-1-yl]-6-methyl-10,10-dioxo-10,11-dihydro-5-oxa-10lambda*6*-thia-dibenzo[a,d]cycloheptene-8-carbonyl}-guanidine dimesylate] showed a melting point of 185 to 187 °C. In turn, `CC(=O)N(CCN1CCOCC1)c1cc(Cl)c2c(c1)CS(=O)(=O)c1cc(C(=O)NC(=N)N)cc(C)c1O2.CS(=O)(=O)O.CS(=O)(=O)O` [Example 68, N-(4-Chloro-8-guanidinocarbonyl-6-methyl-10,10-dioxo-10,11-dihydro-5-oxa-10lambda*6*-thia-dibenzo[a,d]cyclohepten-2-yl)-N-(2-morpholin-4-yl-ethyl)-acetamide dimesylate] registered a melting point of 198 to 200 °C. The compound `Cc1cc(C(=O)N=C(N)N)cc2c1Oc1c(Cl)cc(N3CCN(Cc4ccccc4)CC3)cc1CS2(=O)=O` (as salt: mesylate) [Example 118, N-[2-(4-Benzyl-piperazin-1-yl)-4-chloro-6-methyl-10,10-dioxo-10,11-dihydro-5-oxa-10lambda*6*-thia-dibenzo[a,d]cycloheptene-8-carbonyl]-guanidine dimesylate] registered a melting point of 280 to 285 °C.

The compound `CCN1CCN(c2cc(Cl)c3c(c2)CS(=O)(=O)c2cc(C(=O)NC(=N)N)cc(C)c2O3)CC1.CS(=O)(=O)O.CS(=O)(=O)O` [Example 116, N-[4-Chloro-2-(4-ethyl-piperazin-1-yl)-6-methyl-10,10-dioxo-10,11-dihydro-5-oxa-10lambda*6*-thia-dibenzo[a,d]cycloheptene-8-carbonyl]-guanidine dimesylate] registered a melting point of 255 to 257 °C. The value for `CS(=O)(=O)O.Cc1cc(C(=O)NC(=N)N)cc2c1Oc1c(Cl)cc(NC(=O)CO)cc1CS2(=O)=O` [Example 136, N-(4-Chloro-8-guanidinocarbonyl-6-methyl-10,10-dioxo-10,11-dihydro-5-oxa-10lambda*6*-thia-dibenzo[a,d]cycloheptene-2-yl)-2-hydroxy-acetamide methane sulfonic acid salt] was 180 to 182 °C; that for `CS(=O)(=O)O.CS(=O)(=O)O.CS(=O)(=O)O.Cc1ccc(CNc2cc(Cl)c3c(c2)CS(=O)(=O)c2cc(C(=O)NC(=N)N)cc(C)c2O3)s1` [Example 164, N-{4-Chloro-6-methyl-2-[(5-methyl-thiophen-2-ylmethyl)-amino]-10,10-dioxo-10,11-dihydro-5-oxa-10lambda*6*-thia-dibenzo[a,d]cycloheptene-8-carbonyl}-guanidine trimesylate] was 230 to 232 °C; that for `Cc1cc(C(=O)N=C(N)N)cc2c1Oc1c(Cl)cc(N3CCN(C4CC4)CC3=O)cc1CS2(=O)=O` (as salt: mesylate) [Example 58, N-[4-Chloro-2-(4-cyclopropyl-2-oxo-piperazin-1-yl)-6-methyl-10,10-dioxo-10,11-dihydro-5-oxa-10lambda*6*-thia-dibenzo[a,d]cycloheptene-8-carbonyl]-guanidine dimesylate] was 195 to 196 °C. In turn, `Cc1cc2c(cc1C(=O)N=C(N)N)S(=O)(=O)Cc1ccccc1O2` (as salt: sulfonic acid salt) [Example 27, N-(7-Methyl-10,10-dioxo-10,11-dihydro-5-oxa-10lambda*6*-thia-dibenzo[a,d]cycloheptene-8-carbonyl)-guanidine, methane sulfonic acid salt] displayed a melting point of 272 to 274 °C.

`CS(=O)(=O)O.CS(=O)(=O)O.Cc1cc(C(=O)NC(=N)N)cc2c1Oc1c(Cl)cc(N3CCN(C(C)C)CC3=O)cc1CS2(=O)=O` [Example 60, N-[4-Chloro-2-(4-isopropyl-2-oxo-piperazin-1-yl)-6-methyl-10,10-dioxo-10,11-dihydro-5-oxa-10lambda*6*-thia-dibenzo[a,d]cycloheptene-8-carbonyl]-guanidine dimesylate] returned a melting point of 196 to 198 °C. In turn, `CS(=O)(=O)O.CS(=O)(=O)O.Cc1cc(C(=O)NC(=N)N)cc2c1Oc1c(Cl)cc(NCCNCCN3CCOCC3)cc1CS2(=O)=O` [Example 79, N-{4-Chloro-6-methyl-2-[2-(2-morpholin-4-yl-ethylamino)-ethylamino]-10,10-dioxo-10,11-dihydro-5-oxa-10lambda*6*-thia-dibenzo[a,d]cycloheptene-8-carbonyl}-guanidine dimesylate] returned a melting point of 255 to 256 °C. The result for `Cc1cc(C(=O)N=C(N)N)cc2c1Oc1c(Cl)cc(S(=O)(=O)NCc3cccnc3)cc1CS2(=O)=O` (as salt: mesylate) [Example 52, 4-Chloro-8-guanidinocarbonyl-6-methyl-10,10-dioxo-10,11-dihydro-5-oxa-10lambda*6*-thia-dibenzo[a,d]cycloheptene-2-sulfonic acid (pyridin-3-ylmethyl)-amide dimesylate] reads 271 to 273 °C. `CS(=O)(=O)O.CS(=O)(=O)O.Cc1cc(C(=O)NC(=N)N)cc2c1Oc1c(Cl)cc(NCCNCc3ccccc3)cc1CS2(=O)=O` [Example 88, N-[2-(2-Benzylamino-ethylamino)-4-chloro-6-methyl-10,10-dioxo-10,11-dihydro-5-oxa-10lambda*6*-thia-dibenzo[a,d]cycloheptene-8-carbonyl]-guanidine dimesylate] displayed a melting point of 232 to 233 °C.

In the case of `NC(N)=NC(=O)c1cc(Cl)c2c(c1)S(=O)(=O)Cc1cccc(Cl)c1O2` (as salt: sulfonic acid salt) [Example 45, 4,6-Dichloro-10,10-dioxo-10,11-dihydro-5-oxa-10lambda*6*-thia-dibenzo[a,d]cycloheptene-8-carbonylguanidine, methane sulfonic acid salt], the melting point lay in the range of 270 to 271 °C. For `CS(=O)(=O)O.CS(=O)(=O)O.CS(=O)(=O)O.Cc1cc(C(=O)NC(=N)N)cc2c1Oc1c(Cl)cc(N3CCN(Cc4cccc(N)c4)CC3)cc1CS2(=O)=O` [Example 127, N-{2-[4-(3-Amino-benzyl)-piperazin-1-yl]-4-chloro-6-methyl-10,10-dioxo-10,11-dihydro-5-oxa-10lambda*6*-thia-dibenzo[a,d]cycloheptene-8-carbonyl}-guanidine trimesylate], the melting point fell in the range of 214 to 215 °C. Turning to `CS(=O)(=O)O.CS(=O)(=O)O.Cc1cc(C(=O)NC(=N)N)cc2c1Oc1c(Cl)cc(N3CCN(C(=O)c4ccc[nH]4)CC3)cc1CS2(=O)=O` [Example 110, N-{4-Chloro-6-methyl-10,10-dioxo-2-[4-(1H-pyrrole-2-carbonyl)-piperazin-1-yl]-10,11-dihydro-5-oxa-10lambda*6*-thia-dibenzo[a,d]cycloheptene-8-carbonyl}-guanidine dimesylate], the melting point was 306 to 307 °C. `CNCCNc1cc(Cl)c2c(c1)CS(=O)(=O)c1cc(C(=O)NC(=N)N)cc(C)c1O2.CS(=O)(=O)O.CS(=O)(=O)O` [Example 71, N-[4-Chloro-6-methyl-2-(2-methylamino-ethylamino)-10,10-dioxo-10,11-dihydro-5-oxa-10lambda*6*-thia-dibenzo[a,d]cycloheptene-8-carbonyl)-guanidine dimesylate] registered a melting point of 250 to 251 °C. The value for `CS(=O)(=O)O.CS(=O)(=O)O.Cc1cc(C(=O)NC(=N)N)cc2c1Oc1c(Cl)cc(S(=O)(=O)N3CCN(C)CC3)cc1CS2(=O)=O` [Example 54, N-[4-Chloro-6-methyl-2-(4-methyl-piperazine-1-sulfonyl)-10,10-dioxo-10,11-dihydro-5-oxa-10lambda*6*-thia-dibenzo[a,d]cyclohepten-8-carbonyl]-guanidine dimesylate] was 187 to 189 °C.
